This note sets out measurements from ChEMBL document CHEMBL1141326, “An HIV RNase H inhibitory 1,3,4,5-tetragalloylapiitol from the African plant Hylodendron gabunensis” (J Nat Prod, 2007).

The source made the active and inactive calls. No cut-off for these calls is given here.

The nature of experiment [1]: Inhibition of HIV1 RNase H by FRET assay. Also on record: species or system Human immunodeficiency virus 1.
Experiment [2] can be described thus: Inhibition of HIV2 RNase H by FRET assay. Also on record: species or system Human immunodeficiency virus 2.
A short description of experiment [3]: Inhibition of human RNase H by FRET assay.
Experiment [4] relates to Escherichia coli. The experiment in a line: Inhibition of Escherichia coli RNase H at 10 uM by FRET assay.

As to `O=C(OC[C@H](OC(=O)c1cc(O)c(O)c(O)c1)C(O)(COC(=O)c1cc(O)c(O)c(O)c1)COC(=O)c1cc(O)c(O)c(O)c1)c1cc(O)c(O)c(O)c1`, the results for the concentration for half-maximal inhibition (IC50) in experiment [1], in experiment [2] and in experiment [3] were 240 nM, 130 nM and 1500 nM, respectively. The result in experiment [4] was inactive.
